Consider 17 molecules from patent publication US6855730B2, “3-methylidenyl-2-indolinone modulators of protein kinase” (Sugen, Inc., priority 1998, dated 2005).

The target of the assay is T1, 3T3 cell line genetically engineered to express human EGF-R (Homo sapiens, UniProt P00533).
T1 construct: expressed in transfected cells; host or cells: 3T3
Description: EGF-induced BrdU incorporation assay. In kind it is cell-based. The settings on record: read-out: BrdU EGF driven IC50. The procedure: The cellular/catalytic assays described herein are performed in an ELISA format. The general procedure is as follows: a compound is introduced to cells expressing the test kinase, either naturally or recombinantly, for a selected period of time after which, if the test kinase is a receptor, a ligand known to activate the receptor is added. The cells are lysed and the lysate is transferred to the wells of an ELISA plate previously coated with a specific antibody recognizing the substrate of the enzymatic phosphorylation reaction. Non-substrate components of the cell lysate are washed away and the amount of phosphorylation on the substrate is detected with an antibody specifically recognizing phosphotyrosine compared with control cells that were not contacted with a test compound. The cellular/biologic assays described herein measure the amount of DNA made in response to activation of a test kinase, which is a general measure of a proliferative response. The general procedure for this assay is as follows: a compound is introduced to cells expressing the test kinase, either naturally or recombinantly, for a selected period of time after which, if the test kinase is a receptor, a ligand known to activate the receptor is added. After incubation at least overnight, a DNA labeling reagent such as Bromodeoxyuridine (BrdU) or 3H-thymidine is added. The amount of labeled DNA is detected with either an anti-BrdU antibody or by measuring radioactivity and is compared to control cells not contacted with a test compound. […]
Protocol • (1) Cells are seeded at 8000 cells/well in 10% CS, 2mM Gin in DMEM, in a 96 well plate. Cells are incubated overnight at 37° C. in 5% CO2. • (2) After 24 hours, the cells are washed with PBS, and then are serum starved in serum free medium (0% CS DMEM with 0.1% BSA) for 24 hours. • (3) On day 3, ligand (EGF, 2 nM, prepared in DMEM with 0.1% BSA) and test compounds are added to the cells simultaneously. The negative control wells receive serum free DMEM with 0.1% BSA only, the positive control cells receive the ligand (EGF) but no test compound. Test compounds are prepared in serum free DMEM with ligand in a 96 well plate, and serially diluted for 7 test concentrations. • (4) After 20 hours of ligand activation, diluted BrdU labeling reagent (1:100 in DMEM, 0.1% BSA) is added and the cells are incubated with BrdU (final concentration=10 μM) for 1.5 hours. • (5) After incubation with labeling reagent, the medium is removed by decanting and tapping the inverted plate on a paper towel. FixDenat solution is added (50 μl/well) and the plates are incubated at room temperature for 45 minutes on a plate shaker. • (6) The FixDenat solution is thoroughly removed by decanting and tapping the inverted plate on a paper towel. Milk is added (5% dehydrated milk in PBS, 200 μl/well) as a blocking solution and the plate is incubated for 30 minutes at room temperature on a plate shaker. • (7) The blocking solution is removed by decanting and the wells are washed once with PBS. Anti-BrdU-POD solution (1:100 dilution in PBS, 1% BSA) is added (100 μ/well) and the plate is incubated for 90 minutes at room temperature on a plate shaker. • (8) The antibody conjugate is thoroughly removed by decanting and rinsing the wells 5 times with PBS, and the plate is dried by inverting and tapping on a paper towel. • (9) TMB substrate solution is added (100 μl/well) and incubated for 20 minutes at room temperature on a plate shaker until color development is sufficient for photometric detection. • (10) The absorbance of the samples are measured at 410 nm (in “dual wavelength” mode with a filter reading at 490 nm, as a reference wavelength) on a Dynatech ELISA plate reader.
Background: Uptake of a labelled nucleoside into DNA is a usual measure of proliferation.
As usually defined, the IC50 is the point on the concentration scale where inhibition reaches its midpoint. For the molecule `COc1c(C(C)C)cc(/C=C2/C(=O)Nc3cc(O)ccc32)cc1C(C)C` [Example 4, 3-(3,5-Diisopropyl-4-methoxybenzylidene)-6-hydroxy-1,3-dihydroindol-2-one], the half-maximal inhibitory concentration (IC50) was 26.6 µM.

For `COc1ccc(/C=C2/C(=O)Nc3ccc(F)cc32)cc1C1CCCC1` [Example 11, 3-(3-Cyclopentyl-4-methoxybenzylidene)-5-fluoro-1,3-dihydroindol-2-one], the IC50 is 23.3 µM.

For `COc1cc(/C=C2/C(=O)Nc3ccccc32)c(-c2ccc3ccccc3c2)cc1OC` [Example 62, 3-(4,5-Dimethoxy-2-naphthalen-2-ylbenzylidene)-1,3-dihydroindol-2-one], the 50% inhibitory concentration (IC50) was greater than 50 µM.

In the case of `CC1(C)CCc2cc(C=C3C(=O)Nc4ccc(Br)cc43)ccc2O1` (racemic) [Example 34, 5-Bromo-3-(2,2-dimethylchroman-6-ylmethylene)-1,3-dihydroindol-2-one], the half-maximal inhibitory concentration (IC50) amounted to 11 µM.

As to `CCOc1cccc(-c2cc(C=C3C(=O)Nc4ccccc43)ccc2OC)c1` [Example 46, 3-(3′-Ethoxy-6-methoxybiphenyl-3-ylmethylene)-1,3-dihydroindol-2-one], the IC50 worked out at 45.7 µM.

In the case of `COc1cc(C)c(C=C2C(=O)Nc3cc(NC(C)=O)ccc32)cc1C(C)C` [Example 27, N-[3-(5-Isopropyl-4-methoxy-2-methyl-benzylidene)-2-oxo-2,3-dihydro-1H-indol-6-yl]-acetamide], the concentration for half-maximal inhibition (IC50) worked out at 26.8 µM.

Consider `CC(C)c1cc(/C=C2/C(=O)Nc3ccc(Cl)cc32)cc(C(C)C)c1OCCN1CCOCC1` [Example 24, 5-chloro-3-[3,5-diisopropyl-4-(2-morpholin-4-ylethoxy)-benzylidene]-1,3-dihydroindol-2-one], for which the half-maximal inhibitory concentration (IC50) was found to be 7.5 µM.

Regarding `COc1ccc(C=C2C(=O)Nc3ccccc32)cc1-c1cccc(NC(C)=O)c1` [Example 29, N-[2′-Methoxy-5′-(2-oxo-1,2-dihydroindol-3-ylidenemethyl)-biphenyl-3-yl]-acetamide], the IC50 amounted to 15.2 µM.

For `COc1cc(C)c(C=C2C(=O)Nc3ccccc32)cc1C(C)C` [Example 8, 3-(5-Isopropyl-4-methoxy-2-methylbenzylidene)-1,3-dihydroindol-2-one], the concentration for half-maximal inhibition (IC50) was greater than 50 µM.

`COc1cc(C)c(C=C2C(=O)Nc3ccc(Cl)cc32)cc1C(C)C` [Example 9, 5-Chloro-3-(5-isopropyl-4-methoxy-2-methylbenzylidene)-1,3-dihydroindol-2-one]: the IC50 is 11 µM.

As to `CCOc1cccc(-c2cc(OC)c(OC)cc2/C=C2/C(=O)Nc3ccccc32)c1` [Example 58, 3-(3′-Ethoxy-4,5-dimethoxybiphenyl-2-ylmethylene)-1,3-dihydroindol-2-one], the IC50 turned out to be 27.5 µM.

On to `COc1cc(C=C2C(=O)Nc3ccccc32)c(-c2ccccc2OC)cc1OC` [Example 49, 3-(4,5,2′-Trimethoxybiphenyl-2-ylmethylene)-1,3-dihydroindol-2-one], for which the 50% inhibitory concentration (IC50) was 24.1 µM.

Take `COc1ccc(/C=C2/C(=O)Nc3ccccc32)cc1C1CCCC1` [Example 10, 3-(3-Cyclopentyl-4-methoxybenzylidene)-1,3-dihydroindol-2-one]: the IC50 turned out to be 29 µM.

On to `COc1c(C(C)C)cc(/C=C2/C(=O)Nc3ccc(C)cc32)cc1C(C)C` [Example 19, 3-(3,5-Diisopropyl-4-methoxybenzylidene)-5-methyl-1,3-dihydroindol-2-one], for which the half-maximal inhibitory concentration (IC50) stood at 9.3 µM.

On to `COc1cc(C)c(/C=C2/C(=O)Nc3ccc(F)cc32)cc1C(C)C` [Example 30, 5-Fluoro-3-(5-isopropyl-4-methoxy-2-methyl-benzylidene)-1,3-dihydroindol-2-one], for which the 50% inhibitory concentration (IC50) worked out at 30.3 µM.

With `COc1ccc2c(c1)/C(=C\c1cc(C(C)C)c(OC)c(C(C)C)c1)C(=O)N2` [Example 17, 3-(3,5-Diisopropyl-4-methoxybenzylidene)-5-methoxy-1,3-dihydroindol-2-one], the IC50 came out at 7.4 µM.

As for `COc1cc(C)c(/C=C2/C(=O)Nc3ccc(Br)cc32)cc1C(C)C` [Example 36, 5-Bromo-3-(5-isopropyl-4-methoxy-2-methyl-benzylidene)-1,3-dihydroindol-2-one], the IC50 is 31 µM.
